Data published in patent US12012385B1, “4,5-bis(4-methoxyphenyl)-1-hexyl-2-phenyl-1H-imidazole as an antimicrobial compound” (KING FAISAL UNIVERSITY, priority 2023, dated 2024).

Key:
St. aureus = test: Antimicrobial testing, agar dilution method; type: cell-based, Staphylococcus aureus; conditions: after 10, 20, 40 and 60 min at all dilutions 1:100, 1:200, 1:400, 1:800
Description: (§1) The antimicrobial properties of the, 5-bis(4-methoxyphenyl)-1-hexyl-2-phenyl-1H-imidazole was studied by the method of agar dilution. Test solutions of each compound was prepared in concentration of 1% using dimethylformamide as a solvent then they are diluted in physiological solution to obtain the final experimental dilutions 1:100, 1:200, 1:400, 1:800. The effect of these substances are compared with furacillin in a controllable study. The testing microbes used were gram positive bacteria St. aureus, gram negative bacteria E. Coli, Ps. aeruginosa and Candida albicans fungi were taken. The experiments used for this survey were meat-pentonlu agar (EPA) for cultivation of bacteria and Saburo environment for fungi. Each experiment used 1 ml of test solution on each plate 500 min. Add 2 drops of emulsified with microbes feel. All experimental samples were taken from the agar after 10, 20, 40, 60 minutes in the environment on the basis of Patrk planted. Bacteria were cultivated at a temperature of 37° C. for 1 day and the mushroom was kept in a thermostat for […] at a temperature of 28° C. Then the results were checked.

E. Coli = test: Antimicrobial testing, agar dilution method; type: cell-based, Escherichia coli; conditions: after 10, 20, 40 and 60 min at all dilutions 1:100, 1:200, 1:400, 1:800
Description: as §1

Ps. aeruginosa = test: Antimicrobial testing, agar dilution method; type: cell-based, Pseudomonas aeruginosa; conditions: after 10, 20, 40 and 60 min at all dilutions 1:100, 1:200, 1:400, 1:800
Description: as §1

Candida albicans = test: Antimicrobial testing, agar dilution method; type: cell-based; conditions: after 10, 20, 40 and 60 min at all dilutions 1:100, 1:200, 1:400, 1:800
Description: as §1

For `CCCCCCn1c(-c2ccccc2)nc(-c2ccc(OC)cc2)c1-c1ccc(OC)cc1` [4,5-bis(4-methoxyphenyl)-1-hexyl-2-phenyl-1H-imidazole], the “inhibition activity (in words)” value (St. aureus) was “higher inhibition activity”, the “inhibition activity (in words)” value (E. Coli) was “higher inhibition activity” and the “inhibition activity (in words)” value (Ps. aeruginosa) was “higher inhibition activity”. The “inhibition activity (in words)” value (Candida albicans) was “higher inhibition activity” and the melting point was 177 to 179 °C.
